Measured values published in US10730874B2 (Shire Human Genetic Therapies, Inc., priority 2018, dated 2020).

Target: human activated kallikrein enzyme (plasma kallikrein) (Homo sapiens (Human), UniProt P03952)
Assay: Inhibition of human activated plasma kallikrein, fluorogenic peptide substrate assay, 500 pM enzyme format
Type: biochemical
Conditions: 500 pM activated kallikrein enzyme, 300 uM Pro-Phe-Arg-7-amido-4-methylcoumarin substrate, 30 min preincubation, 10 min at RT; read-out: Primary Dose Response Assay: Average EC50
How it was run: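 Buffer 20 mM Tris pH 7.5, EDTA, NaCl, PEG-400, Triton X-100; 300 uM Pro-Phe-Arg-AMC; enzyme–inhibitor preincubation 30 min RT. Format one: 500 pM kallikrein, 10 min RT reaction; format two: 5 pM kallikrein, 18 h RT reaction. Fluorescence read at 460 nm (380 nm excitation).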

human activated kallikrein enzyme (plasma kallikrein), sequence (P03952 391-638): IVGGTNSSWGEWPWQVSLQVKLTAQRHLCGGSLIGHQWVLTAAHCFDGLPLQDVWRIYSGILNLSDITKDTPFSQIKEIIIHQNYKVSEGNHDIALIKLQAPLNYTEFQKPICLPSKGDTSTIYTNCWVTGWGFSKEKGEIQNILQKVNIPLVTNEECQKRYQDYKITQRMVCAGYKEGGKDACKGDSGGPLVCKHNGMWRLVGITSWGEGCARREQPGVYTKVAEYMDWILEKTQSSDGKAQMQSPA
human activated kallikrein enzyme (plasma kallikrein), sequence (P03952 20-390 partner): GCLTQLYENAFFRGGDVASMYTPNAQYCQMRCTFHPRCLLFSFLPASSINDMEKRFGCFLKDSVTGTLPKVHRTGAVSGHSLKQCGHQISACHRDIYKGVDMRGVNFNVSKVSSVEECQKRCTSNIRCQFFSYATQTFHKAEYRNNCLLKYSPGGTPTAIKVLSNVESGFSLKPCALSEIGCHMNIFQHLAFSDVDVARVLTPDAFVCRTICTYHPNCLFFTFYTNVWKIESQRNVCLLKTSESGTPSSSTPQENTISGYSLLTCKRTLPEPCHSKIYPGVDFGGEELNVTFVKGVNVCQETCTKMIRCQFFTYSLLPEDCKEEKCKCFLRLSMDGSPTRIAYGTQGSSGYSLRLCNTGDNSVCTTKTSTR

Row | SMILES | EC50 [nM]
1 | COC(=O)c1cc(C(=O)NCc2ncn3ccc(Cl)c(F)c23)cn1Cc1cn2cc(C3CC3)ccc2n1 [Example I-270a, methyl 4-(((7-chloro-8-fluoroimidazo[1,5-a]pyridin-1-yl)methyl)carbamoyl)-1-((6-cyclopropylimidazo[1,2-a]pyridin-2-yl)methyl)-1H-pyrrole-2-carboxylate] | 1 to 10
2 | O=C(NCc1ncn2ccc(Cl)cc12)c1nnc(Cc2cn3nc(C4CC4)ccc3n2)o1 [Example I-138, N-((7-chloroimidazo[1,5-a]pyridin-1-yl)methyl)-5-((6-cyclopropylimidazo[1,2-b]pyridazin-2-yl)methyl)-1,3,4-oxadiazole-2-carboxamide] | < 1
3 | COC(=O)CCc1nn(Cc2cn3cc(C4CC4)ccc3n2)cc1C(=O)NCc1ncn2ccc(Cl)cc12 [Example I-65, methyl 3-(4-(((7-chloroimidazo[1,5-a]pyridin-1-yl)methyl)carbamoyl)-1-((6-cyclopropylimidazo[1,2-a]pyridin-2-yl)methyl)-1H-pyrazol-3-yl)propanoate] | < 1
4 | O=C(NCc1ncn2ccc(Br)cc12)c1cnn(Cc2cn3cc(C4CC4)c(F)cc3n2)c1 [Example I-20, N-((7-bromoimidazo[1,5-a]pyridin-1-yl)methyl)-1-((6-cyclopropyl-7-fluoroimidazo[1,2-a]pyridin-2-yl)methyl)-1H-pyrazole-4-carboxamide] | 1 to 10
5 | O=C(O)c1cn(-c2cc(C3CC3)cn3cc(Cn4cc(C(=O)NCc5ncn6ccc(Cl)c(F)c56)nn4)nc23)cn1 [Example I-226, 1-(2-((4-((7-chloro-8-fluoroimidazo[1,5-a]pyridin-1-yl)methylcarbamoyl)-1H-1,2,3-triazol-1-yl)methyl)-6-cyclopropylimidazo[1,2-a]pyridin-8-yl)-1H-imidazole-4-carboxylic acid] | < 1
6 | O=C(NCc1ncn2ccc(Cl)cc12)c1cn(Cc2cn3cc(C4CC4)ccc3n2)nc1C(F)F [Example I-99, N-((7-chloroimidazo[1,5-a]pyridin-1-yl)methyl)-1-((6-cyclopropylimidazo[1,2-a]pyridin-2-yl)methyl)-3-(difluoromethyl)-1H-pyrazole-4-carboxamide] | < 1
7 | CC(NC(=O)c1cn(Cc2cn3cc(C4CC4)cc(C(O)C4COC4)c3n2)nn1)c1ncn2ccc(Cl)c(F)c12 (stereo not shown) [Example I-280, N-(1-(7-chloro-8-fluoroimidazo[1,5-a]pyridin-1-yl)ethyl)-1-((6-cyclopropyl-8-(hydroxy(oxetan-3-yl)methyl)imidazo[1,2-a]pyridin-2-yl)methyl)-1H-1,2,3-triazole-4-carboxamide] | 10 to 100
8 | O=C(O)c1ccn(Cc2cc(C3CC3)cn3cc(Cn4cc(C(=O)NCc5ncn6ccc(Cl)c(F)c56)nn4)nc23)n1 [Example I-202, 1-((2-((4-(((7-chloro-8-fluoroimidazo[1,5-a]pyridin-1-yl)methyl)carbamoyl)-1H-1,2,3-triazol-1-yl)methyl)-6-cyclopropylimidazo[1,2-a]pyridin-8-yl)methyl)-1H-pyrazole-3-carboxylic acid] | < 1
9 | CC1CC1c1ccc2nc(Cn3cc(C(=O)NCc4ncn5ccc(Br)cc45)cn3)cn2c1 (stereo not shown) [Example I-44, N-((7-bromoimidazo[1,5-a]pyridin-1-yl)methyl)-1-((6-(2-methylcyclopropyl)imidazo[1,2-a]pyridin-2-yl)methyl)-1H-pyrazole-4-carboxamide] | < 1
10 | COC(=O)C1CN(c2cc(C3CC3)nn3cc(Cn4cc(C(=O)NCc5ncn6ccc(Cl)c(F)c56)nn4)nc23)C1 [Example I-265a, methyl 1-(2-((4-(((7-chloro-8-fluoroimidazo[1,5-a]pyridin-1-yl)methyl)carbamoyl)-1H-1,2,3-triazol-1-yl)methyl)-6-cyclopropylimidazo[1,2-b]pyridazin-8-yl)azetidine-3-carboxylate] | < 1
